Results reported in PubChem BioAssay AID220 (DTP/NCI, 2004).
“And” between values parts separate entries of the source, which are not always exact repeats. Identical values can stand only once. Records with an inconclusive call do not appear.

Test system: CD8F1 mice, subcutaneous mammary adenocarcinoma, T/C%
Assay: NCI In Vivo Anticancer Drug Screen. Data for tumor model Mammary Adenocarcinoma CD8F1 (subcutaneous) in CD8F1
Details: higher = larger tumour
How it was run: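 Mice carrying transplanted tumors received test compound, and survival or tumor size was recorded. Each value is the treated-group measurement divided by the corresponding measurement in vehicle-dosed controls.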

[1] = endpoint: median tumor weight (est.), dose: 25.0 mg/kg/injection, schedule: Q07DX005 (ip), vehicle: saline
[2] = endpoint: median tumor weight (est.), dose: 100.0 mg/kg/injection, schedule: Q07DX005 (ip), vehicle: saline
[3] = endpoint: median tumor weight (est.), dose: 0.5 mg/kg/injection, schedule: Q07DX005 (ip), vehicle: saline
[4] = endpoint: median tumor weight (est.), dose: 1.0 mg/kg/injection, schedule: Q07DX005 (ip), vehicle: saline
[5] = endpoint: median tumor weight (est.), dose: 2.0 mg/kg/injection, schedule: Q07DX005 (ip), vehicle: saline
[6] = endpoint: median tumor weight (est.), dose: 4.0 mg/kg/injection, schedule: Q07DX005 (ip), vehicle: saline

Structure (SMILES): CC1CN1P1(N2CC2C)=NP(N2CC2C)(N2CC2C)=NP(N2CC2C)(N2CC2C)=N1 (stereo not drawn)
- T/C (endpoint: mean tumor weight, dose: 12.5 mg/kg/injection, schedule: Q04DX005 (ip), vehicle: saline): 61 % of control
- T/C (endpoint: mean tumor weight, dose: 25.0 mg/kg/injection, schedule: Q04DX005 (ip), vehicle: saline): 97 % of control
- T/C (endpoint: mean tumor weight, dose: 25.0 mg/kg/injection, schedule: Q07DX005 (ip), vehicle: saline): 119 % of control
- T/C (endpoint: mean tumor weight, dose: 50.0 mg/kg/injection, schedule: Q04DX005 (ip), vehicle: saline): 66 % of control
- T/C (endpoint: mean tumor weight, dose: 50.0 mg/kg/injection, schedule: Q07DX005 (ip), vehicle: saline): 92 % of control
- T/C (endpoint: mean tumor weight, dose: 100.0 mg/kg/injection, schedule: Q04DX005 (ip), vehicle: saline): 13 % of control
- T/C (endpoint: mean tumor weight, dose: 100.0 mg/kg/injection, schedule: Q07DX005 (ip), vehicle: saline): 49 % of control
- T/C [1]: 70 % of control
- T/C [2]: 6 % of control and 11 % of control

Structure (SMILES): COC(=O)[C@@]12OC[C@]34[C@H]([C@@H](O)[C@@H]1O)[C@@]1(C)CC(=O)C(O)=C(C)[C@@H]1C[C@H]3OC(=O)[C@H](OC(=O)/C=C(/C)C(C)(C)O)[C@@H]24
- T/C (endpoint: median tumor weight (est.), dose: 0.05 mg/kg/injection, schedule: Q07DX005 (ip), vehicle: saline): 92 % of control
- T/C (endpoint: median tumor weight (est.), dose: 0.1 mg/kg/injection, schedule: Q07DX005 (ip), vehicle: saline): 88 % of control
- T/C (endpoint: median tumor weight (est.), dose: 0.2 mg/kg/injection, schedule: Q07DX005 (ip), vehicle: saline): 67 % of control
- T/C (endpoint: median tumor weight (est.), dose: 0.4 mg/kg/injection, schedule: Q07DX005 (ip), vehicle: saline): 100 % of control
- T/C (endpoint: median tumor weight (est.), dose: 0.8 mg/kg/injection, schedule: Q07DX005 (ip), vehicle: saline): 90 % of control

Structure (SMILES): C1CNCOC1
- T/C (endpoint: median tumor weight change, dose: 50.0 mg/kg/injection, schedule: Q01DX001 (ip), vehicle: saline): 74 % of control
- T/C (endpoint: median tumor weight change, dose: 62.5 mg/kg/injection, schedule: Q01DX001 (ip), vehicle: saline): 48 % of control
- T/C (endpoint: median tumor weight change, dose: 100.0 mg/kg/injection, schedule: Q01DX001 (ip), vehicle: saline): 82 % of control
- T/C (endpoint: median tumor weight change, dose: 200.0 mg/kg/injection, schedule: Q01DX001 (ip), vehicle: saline): 90 % of control
- T/C (endpoint: median tumor weight change, dose: 250.0 mg/kg/injection, schedule: Q01DX001 (ip), vehicle: saline): 96 % of control

Structure (SMILES): ClCCCN1CCN(CCCl)CC1
- T/C (endpoint: median tumor weight change, dose: 10.0 mg/kg/injection, schedule: Q01DX001 (ip), vehicle: saline): 92 % of control and 97 % of control
- T/C (endpoint: median tumor weight change, dose: 14.4 mg/kg/injection, schedule: Q01DX001 (ip), vehicle: saline): 88 % of control
- T/C (endpoint: median tumor weight change, dose: 20.0 mg/kg/injection, schedule: Q01DX001 (ip), vehicle: saline): 27 % of control and 52 % of control
- T/C (endpoint: median tumor weight change, dose: 24.0 mg/kg/injection, schedule: Q01DX001 (ip), vehicle: saline): 15 % of control

Structure (SMILES): CCC1=C[C@H]2CN(CCc3c([nH]c4ccccc34)[C@@](C(=O)OC)(c3cc4c(cc3OC)N(C)[C@H]3[C@@](O)(C(=O)NC)[C@H](OC(C)=O)[C@]5(CC)C=CCN6CC[C@]43[C@@H]65)C2)C1
- T/C (endpoint: median tumor weight (est.), dose: 0.03 mg/kg/injection, schedule: Q07DX005 (ip), vehicle: water): 93 % of control
- T/C (endpoint: median tumor weight (est.), dose: 0.06 mg/kg/injection, schedule: Q07DX005 (ip), vehicle: water): 98 % of control
- T/C (endpoint: median tumor weight (est.), dose: 0.12 mg/kg/injection, schedule: Q07DX005 (ip), vehicle: water): 91 % of control
- T/C [3]: 86 % of control
- T/C (endpoint: median tumor weight (est.), dose: 0.5 mg/kg/injection, schedule: Q07DX005 (ip), vehicle: water): 73 % of control
- T/C [4]: 46 % of control
- T/C (endpoint: median tumor weight (est.), dose: 1.0 mg/kg/injection, schedule: Q07DX005 (ip), vehicle: water): 57 % of control
- T/C (endpoint: median tumor weight (est.), dose: 2.0 mg/kg/injection, schedule: Q07DX005 (ip), vehicle: water): 3 % of control

Structure (SMILES): CCC(C)C(=O)OC1C(=O)OC2CC3C(C)=CC(=O)C(O)C3(C)C3C4(O)OCC23C1C(C)C4O (stereo not drawn)
- T/C [3]: 70 % of control
- T/C (endpoint: median tumor weight (est.), dose: 1.0 mg/kg/injection, schedule: Q07DX005 (ip), vehicle: saline with Tween-80): 237 % of control
- T/C [4]: 95 % of control
- T/C [5]: 70 % of control
- T/C (endpoint: median tumor weight (est.), dose: 4.0 mg/kg/injection, schedule: Q07DX005 (ip), vehicle: saline with Tween-80): 165 % of control
- T/C [6]: 74 % of control

Structure (SMILES): CC(=O)Nc1ccc(Nc2ccc(C(=C3C=CC(=[N+](C)CCC#N)C=C3)c3ccc(N(C)CCC#N)cc3)cc2)cc1
- T/C (endpoint: median tumor weight change, dose: 125.0 mg/kg/injection, schedule: Q01DX001 (ip), vehicle: saline with Tween-80): 67 % of control

Structure (SMILES): COc1cc([C@@H]2c3cc4c(c(O)c3C[C@H]3COC(=O)[C@@H]32)OCO4)cc(OC)c1O
- T/C [3]: 275 % of control
- T/C [4]: 85 % of control
- T/C [5]: 56 % of control
- T/C [6]: 26 % of control
- T/C (endpoint: median tumor weight (est.), dose: 8.0 mg/kg/injection, schedule: Q07DX005 (ip), vehicle: saline): 27 % of control

Structure (SMILES): C[C@H]1C[C@@H]2[C@H]([C@@H](O)C[C@@]3(C)[C@H]2CC[C@]3(O)C(=O)CO)[C@@]2(C)C=CC(=O)C=C12
- T/C (endpoint: median tumor weight (est.), dose: 6.25 mg/kg/injection, schedule: Q07DX005 (ip), vehicle: Klucel (hydroxypropylcellulose) (HPC)): 70 % of control
- T/C (endpoint: median tumor weight (est.), dose: 12.5 mg/kg/injection, schedule: Q07DX005 (ip), vehicle: Klucel (hydroxypropylcellulose) (HPC)): 63 % of control
- T/C (endpoint: median tumor weight (est.), dose: 25.0 mg/kg/injection, schedule: Q07DX005 (ip), vehicle: Klucel (hydroxypropylcellulose) (HPC)): 63 % of control
- T/C (endpoint: median tumor weight (est.), dose: 50.0 mg/kg/injection, schedule: Q07DX005 (ip), vehicle: Klucel (hydroxypropylcellulose) (HPC)): 60 % of control
- T/C (endpoint: median tumor weight (est.), dose: 100.0 mg/kg/injection, schedule: Q07DX005 (ip), vehicle: Klucel (hydroxypropylcellulose) (HPC)): 53 % of control
- T/C (endpoint: median tumor weight (est.), dose: 200.0 mg/kg/injection, schedule: Q07DX005 (ip), vehicle: Klucel (hydroxypropylcellulose) (HPC)): 28 % of control

Structure (SMILES): CC1=C(/C=C/C(C)=C/C=C/C(C)=C/CO)C(C)(C)CCC1
- T/C (endpoint: median tumor weight (est.), dose: 8.0 mg/kg/injection, schedule: Q07DX005 (ip), vehicle: saline with Tween-80): 195 % of control
- T/C (endpoint: median tumor weight (est.), dose: 32.0 mg/kg/injection, schedule: Q07DX005 (ip), vehicle: saline with Tween-80): 118 % of control

Structure (SMILES): COc1cc2cc(c1Cl)N(C)C(=O)C[C@H](OC(=O)[C@H](C)N(C)C(C)=O)[C@]1(C)O[C@H]1[C@H](C)[C@@H]1C[C@@](O)(NC(=O)O1)[C@H](OC)C=C/C=C(\C)C2
- T/C (endpoint: median tumor weight (est.), dose: 0.03 mg/kg/injection, schedule: Q07DX005 (ip), vehicle: Klucel (hydroxypropylcellulose) (HPC)): 167 % of control
- T/C (endpoint: median tumor weight (est.), dose: 0.06 mg/kg/injection, schedule: Q07DX005 (ip), vehicle: Klucel (hydroxypropylcellulose) (HPC)): 151 % of control
- T/C (endpoint: median tumor weight (est.), dose: 0.12 mg/kg/injection, schedule: Q07DX005 (ip), vehicle: Klucel (hydroxypropylcellulose) (HPC)): 264 % of control
- T/C (endpoint: median tumor weight (est.), dose: 0.25 mg/kg/injection, schedule: Q07DX005 (ip), vehicle: Klucel (hydroxypropylcellulose) (HPC)): 188 % of control
- T/C (endpoint: median tumor weight (est.), dose: 62.0 micrograms/kg/injection, schedule: Q07DX005 (ip), vehicle: Klucel (hydroxypropylcellulose) (HPC)): 54 % of control
- T/C (endpoint: median tumor weight (est.), dose: 125.0 micrograms/kg/injection, schedule: Q07DX005 (ip), vehicle: Klucel (hydroxypropylcellulose) (HPC)): 77 % of control
- T/C (endpoint: median tumor weight (est.), dose: 250.0 micrograms/kg/injection, schedule: Q07DX005 (ip), vehicle: Klucel (hydroxypropylcellulose) (HPC)): 110 % of control
- T/C (endpoint: median tumor weight (est.), dose: 500.0 micrograms/kg/injection, schedule: Q07DX005 (ip), vehicle: Klucel (hydroxypropylcellulose) (HPC)): 93 % of control
- T/C (endpoint: median tumor weight change, dose: 125.0 micrograms/kg/injection, schedule: Q01DX001 (ip), vehicle: Klucel (hydroxypropylcellulose) (HPC)): 67 % of control
- T/C (endpoint: median tumor weight change, dose: 500.0 micrograms/kg/injection, schedule: Q01DX001 (ip), vehicle: Klucel (hydroxypropylcellulose) (HPC)): 29 % of control and 35 % of control
- T/C (endpoint: median tumor weight change, dose: 1000.0 micrograms/kg/injection, schedule: Q01DX001 (ip), vehicle: Klucel (hydroxypropylcellulose) (HPC)): 3 % of control and 21 % of control
- T/C (endpoint: median tumor weight change, dose: 2000.0 micrograms/kg/injection, schedule: Q01DX001 (ip), vehicle: Klucel (hydroxypropylcellulose) (HPC)): 12 % of control

Structure (SMILES): CO[C@@]12[C@@H]3N[C@@H]3CN1C1=C(C(=O)C(NCC3CCCO3)=C(C)C1=O)[C@@H]2COC(N)=O (stereo partly drawn)
- T/C (endpoint: median tumor weight change, dose: 6.25 mg/kg/injection, schedule: Q01DX001 (ip), vehicle: distilled water + Tween-80): 44 % of control

Structure (SMILES): O=P1(NCCCl)OCCCN1CCCl (stereo not drawn)
- T/C [1]: 26 % of control and 29 % of control
- T/C (endpoint: median tumor weight (est.), dose: 50.0 mg/kg/injection, schedule: Q07DX005 (ip), vehicle: saline): 11 % of control and 12 % of control
- T/C [2]: 6 % of control

Structure (SMILES): CC(=O)Oc1ccc[nH]c1=O
- T/C (endpoint: median tumor weight (est.), dose: 25.0 mg/kg/injection, schedule: Q07DX005 (ip), vehicle: saline with Tween-80): 68 % of control
- T/C (endpoint: median tumor weight (est.), dose: 50.0 mg/kg/injection, schedule: Q07DX005 (ip), vehicle: saline with Tween-80): 88 % of control
- T/C (endpoint: median tumor weight (est.), dose: 100.0 mg/kg/injection, schedule: Q07DX005 (ip), vehicle: saline with Tween-80): 93 % of control
- T/C (endpoint: median tumor weight (est.), dose: 200.0 mg/kg/injection, schedule: Q07DX005 (ip), vehicle: saline with Tween-80): 102 % of control
- T/C (endpoint: median tumor weight (est.), dose: 400.0 mg/kg/injection, schedule: Q07DX005 (ip), vehicle: saline with Tween-80): 118 % of control
- T/C (endpoint: median tumor weight (est.), dose: 800.0 mg/kg/injection, schedule: Q07DX005 (ip), vehicle: saline with Tween-80): 54 % of control
